Test results published in patent US20160355475A1, “NOVEL INDOLE DERIVATIVE COMPOUND AND PHARMACEUTICAL COMPOSITION COMPRISING THE SAME” (CHONG KUN DANG PHARMACEUTICAL CORP., priority 2014, published 2016).

Experiments:
[1] = molecular target: T1, HDAC6 human recombinant (Homo sapiens, UniProt Q9UBN7); experiment: HDAC6 enzyme activity inhibition (fluorimetric, in vitro); type: biochemical; details: 37° C., 60 minutes; tested at 0.1, 1, 10, 100 and 1000 nM
T1 construct: purchased Calbiochem 382180
T1 sequence (Q9UBN7 1-1215): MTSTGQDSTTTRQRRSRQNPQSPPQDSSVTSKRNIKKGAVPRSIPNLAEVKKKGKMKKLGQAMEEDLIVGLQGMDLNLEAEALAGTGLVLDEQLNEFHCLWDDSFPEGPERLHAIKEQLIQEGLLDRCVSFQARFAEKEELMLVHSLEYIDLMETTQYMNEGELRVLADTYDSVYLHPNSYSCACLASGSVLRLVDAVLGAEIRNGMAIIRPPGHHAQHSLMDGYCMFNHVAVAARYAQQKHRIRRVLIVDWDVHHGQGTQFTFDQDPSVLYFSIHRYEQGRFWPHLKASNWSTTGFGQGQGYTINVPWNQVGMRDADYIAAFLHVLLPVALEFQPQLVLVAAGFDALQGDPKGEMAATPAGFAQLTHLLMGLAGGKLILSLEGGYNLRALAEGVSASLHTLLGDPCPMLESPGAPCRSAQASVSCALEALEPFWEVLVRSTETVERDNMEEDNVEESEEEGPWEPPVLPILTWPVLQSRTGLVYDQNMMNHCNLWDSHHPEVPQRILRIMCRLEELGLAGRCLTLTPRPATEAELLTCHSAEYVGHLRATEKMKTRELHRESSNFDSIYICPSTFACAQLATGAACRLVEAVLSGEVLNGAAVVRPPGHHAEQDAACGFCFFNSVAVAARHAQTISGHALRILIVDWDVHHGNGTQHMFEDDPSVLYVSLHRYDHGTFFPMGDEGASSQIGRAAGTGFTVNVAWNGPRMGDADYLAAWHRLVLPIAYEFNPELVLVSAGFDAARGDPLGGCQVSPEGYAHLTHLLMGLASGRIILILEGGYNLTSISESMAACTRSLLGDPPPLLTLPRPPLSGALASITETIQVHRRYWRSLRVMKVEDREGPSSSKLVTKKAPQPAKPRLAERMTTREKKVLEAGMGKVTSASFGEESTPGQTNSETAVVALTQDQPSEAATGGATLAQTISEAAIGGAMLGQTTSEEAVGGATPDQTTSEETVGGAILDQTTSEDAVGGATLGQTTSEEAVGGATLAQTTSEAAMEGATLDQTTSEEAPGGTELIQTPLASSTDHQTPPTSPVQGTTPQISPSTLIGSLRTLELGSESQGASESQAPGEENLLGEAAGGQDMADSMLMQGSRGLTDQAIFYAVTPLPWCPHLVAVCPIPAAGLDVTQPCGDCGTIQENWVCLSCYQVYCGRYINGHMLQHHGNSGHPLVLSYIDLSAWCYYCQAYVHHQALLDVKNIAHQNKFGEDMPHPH
Method: (§1) 1. Experiment on Activities in HDAC Enzymes (HDAC1 and HDAC6)
(§2) Assays were performed using a HDAC1 fluorimetric drug discovery assay kit (Enzolifesciences: BML-AK511) and a HDAC6 human recombinant (Calbiochem: 382180). The assay mixture of the kit was treated with each of the compounds of the Examples at concentrations 100, 1000 and 10000 nM for HDAC1 assay and 0.1, 1, 10, 100 and 1000 nM for HDAC6 assay. The treated assay mixture was allowed to react at 37° C. for 60 minutes, and then was treated with a developer and allowed to stand at 37° C. for 30 minutes, followed by quantification of the fluorescence. In Table 17, lower HDAC6 values (μM) indicate higher HDAC6 inhibitory activities of the compounds. Also, because selective HDAC6 inhibitors should not inhibit HDAC1 (μM), higher HDAC1 values indicate higher HDAC6 selectivity of the compounds.

[2] = molecular target: T2, HDAC1 (Homo sapiens, UniProt Q13547); experiment: HDAC1 enzyme activity inhibition (HDAC1 fluorimetric drug discovery assay kit); type: biochemical; details: 37° C., 60 minutes; tested at 100, 1000 and 10000 nM
T2 construct: purchased Enzolifesciences BML-AK511
T2 sequence (Q13547 whole entry): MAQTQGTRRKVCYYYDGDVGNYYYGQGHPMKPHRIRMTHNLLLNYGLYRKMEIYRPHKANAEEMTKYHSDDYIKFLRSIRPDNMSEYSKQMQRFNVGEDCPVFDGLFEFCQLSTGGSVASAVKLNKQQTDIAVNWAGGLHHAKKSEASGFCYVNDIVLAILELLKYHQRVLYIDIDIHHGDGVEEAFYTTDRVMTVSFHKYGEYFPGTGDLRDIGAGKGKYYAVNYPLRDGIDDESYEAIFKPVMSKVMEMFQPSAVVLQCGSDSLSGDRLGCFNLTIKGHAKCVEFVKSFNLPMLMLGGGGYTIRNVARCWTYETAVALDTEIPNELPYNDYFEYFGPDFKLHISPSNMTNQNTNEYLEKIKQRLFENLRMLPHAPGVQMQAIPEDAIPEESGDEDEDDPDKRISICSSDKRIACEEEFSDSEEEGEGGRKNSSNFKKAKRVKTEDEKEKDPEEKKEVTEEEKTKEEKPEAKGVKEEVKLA
Method: as §1, §2

SMILES | IC50 [1] [nM] | IC50 [2] [nM]
Cc1c(Cc2ccc(C(=O)NO)cc2)c2ccccc2n1CCN1CCOCC1 [Compound 153, N-hydroxy-4-((2-methyl-1-(2-morpholinoethyl)-1H-indol-3-yl)methyl)benzamide] | 140 | 4380
Cc1c(Cc2ccc(C(=O)NO)cc2)c2ccccc2n1CCN1CCN(C)CC1 [Compound 154, N-hydroxy-4-((2-methyl-1-(2-(4-methylpiperazin-1-yl)ethyl)-1H-indol-3-yl)methyl)benzamide] | 8 | 2220
O=C(NO)c1ccc(Cc2c(CN3CCOCC3)[nH]c3ccccc23)cc1 [Compound 155, N-hydroxy-4-((2-(morpholinomethyl)-1H-indol-3-yl)methyl)benzamide] | 24 | 3860
Cc1c(Cc2ccc(C(=O)NO)cc2)c2ccccc2n1CCN1CCN(C(C)C)CC1 [Compound 196, N-hydroxy-4-((1-(2-(4-isopropylpiperazin-1-yl)ethyl)-2-methyl-1H-indol-3-yl)methyl)benzamide] | 6 | 1610
Cc1c(Cc2ccc(C(=O)NO)cc2)c2ccccc2n1CCN1CCN(CCO)CC1 [Compound 197, N-hydroxy-4-((1-(2-(4-(2-hydroxyethyl)piperazin-1-yl)ethyl)-2-methyl-1H-indol-3-yl)methyl)benzamide] | 8 | 1810
COCCN1CCN(CCn2c(C)c(Cc3ccc(C(=O)NO)cc3)c3ccccc32)CC1 [Compound 198, N-hydroxy-4-((1-(2-(4-(2-methoxyethyl)piperazin-1-yl)ethyl)-2-methyl-1H-indol-3-yl)methyl)benzamide] | 5 | 1890
Cc1c(Cc2ccc(C(=O)NO)cc2)c2ccccc2n1CCN1CCC[C@H]1CO [Compound 199, (S)—N-hydroxy-4-((1-(2-(2-(hydroxymethyl)pyrrolidin-1-yl)ethyl)-2-methyl-1H-indol-3-yl)methyl)benzamide] | 4 | 1260
Cc1c(Cc2ccc(C(=O)NO)cn2)c2ccccc2n1CCN1CCN(C)CC1 [Compound 243, N-hydroxy-6-((2-methyl-1-(2-(4-methylpeperazin-1-yl)ethyl)-1H-indol-3-yl)methyl)nicotinamide] | 340 | –
Cc1c(Cc2ccc(C(=O)NO)cn2)c2ccccc2n1CCN1CCOCC1 [Compound 244, N-hydroxy-6-((2-methyl-1-(2-morpholinoethyl)-1H-indol-3-yl)methyl)nocotinamide] | 236 | –
Cc1c(Cc2ccc(C(=O)NO)cc2)c2ccccc2n1CCN1CCCC(F)C1 (centres unmarked) [Compound 550, 4-((1-(2-(3-fluoropiperidin-1-yl)ethyl)-2-methyl-1H-indol-3-yl)methyl)-N-hydroxybenzamide] | 68 | –
Cc1c(Cc2ccc(C(=O)NO)cc2)c2ccccc2n1CCN1CCC[C@H]1CF [Compound 551, (S)-4-((1-(2-(2-(fluoromethyl)pyrrolidin-1-yl)ethyl)-2-methyl-1H-indol-3-yl)methyl)-N-hydroxybenzamide] | 82 | –
Cc1c(Cc2ccc(C(=O)NO)cc2)c2ccccc2n1CC1CCN(Cc2ccccc2)CC1 [Compound 556, 4-((1-((1-Benzylpiperidin-4-yl)methyl)-2-methyl-1H-indol-3-yl)methyl)-N-hydroxybenzamide] | 108 | –
Cc1c(Cc2ccc(C(=O)NO)cc2)c2ccccc2n1CC1CCN(CCc2ccccc2)CC1 [Compound 559, N-hydroxy-4-((2-methyl-1-((1-phenethylpiperidin-4-yl)methyl)-1H-indol-3-yl)methyl)benzamide] | 273 | –

Further lines, results first:

IC50 [1] [nM] | IC50 [2] [nM] | SMILES
87 | – | Cc1c(Cc2ccc(C(=O)NO)cc2F)c2ccccc2n1CC1CCN(CC(C)(C)F)CC1 [Compound 562, 3-Fluoro-4-((1-((1-(2-fluoro-2-methylpropyl)piperidin-4-yl)methyl)-2-methyl-1H-indol-3-yl)methyl)-N-hydroxybenzamide]
307 | – | Cc1c(Cc2ccc(C(=O)NO)cc2)c2ccccc2n1CCC1CCN(CC(C)(C)F)CC1 [Compound 563, 4-((1-(2-(1-(2-Fluoro-2-methylpropyl)piperidin-4-yl)ethyl)-2-methyl-1H-indol-3-yl)methyl)-N-hydroxybenzamide]
7 | – | Cc1c(Cc2ccc(C(=O)NO)cc2)c2ccccc2n1CC1CCN(CC2(F)CCOCC2)CC1 [Compound 584, 4-((1-((1-((4-Fluoro-tetrahydro-2H-pyran-4-yl)methyl)piperidin-4-yl)methyl)-2-methyl-1H-indol-3-yl)methyl)-N-hydroxybenzamide]
150 | – | CC(C)(F)CN1CCC(Cn2cc(Cc3ccc(C(=O)NO)cc3)c3ccccc32)CC1 [Compound 614, 4-((1-((1-(2-Fluoro-2-methylpropyl)piperidin-4-yl)methyl)-1H-indol-3-yl)methyl)-N-hydroxybenzamide]
821 | – | CC(C)(F)CN1CCC(Cn2c(-c3ccccc3)c(Cc3ccc(C(=O)NO)cc3)c3ccccc32)CC1 [Compound 616, 4-((1-((1-(2-Fluoro-2-methylpropyl)piperidin-4-yl)methyl)-2-phenyl-1H-indol-3-yl)methyl)-N-hydroxybenzamide]
89 | – | Cc1c(Cc2ccc(C(=O)NO)cc2)c2ccccc2n1CC1CCN(Cc2ccncc2)CC1 [Compound 621, N-hydroxy-4-((2-methyl-1-((1-(pyridin-4-ylmethyl)piperidin-4-yl)methyl)-1H-indol-3-yl)methyl)benzamide]
90 | – | Cc1c(Cc2ccc(C(=O)NO)cc2)c2ccccc2n1CC1CCN(Cc2ccc(F)cc2)CC1 [Compound 622, 4-((1-((1-(4-Fluorobenzyl)piperidin-4-yl)methyl)-2-methyl-1H-indol-3-yl)methyl)-N-hydroxybenzamide]
352 | – | CC(C)(F)CN1CCC(Cn2c(C3=CCOCC3)c(Cc3ccc(C(=O)NO)cc3)c3ccccc32)CC1 [Compound 627, 4-((2-(3,6-Dihydro-2H-pyran-4-yl)-1-((1-(2-fluoro-2-methylpropyl)piperidin-4-yl)methyl)-1H-indol-3-yl)methyl)-N-hydroxybenzamide]
24 | – | Cc1c(Cc2ccc(C(=O)NO)cc2)c2ccccc2n1CC1CCN(CC2(F)CCN(C(=O)NC(C)C)CC2)CC1 [Compound 695, 4-Fluoro-4-((4-((3-(4-(hydroxycarbamoyl)benzyl)-2-methyl-1H-indol-1-yl)methyl)piperidin-1-yl)methyl)-N-isopropylpiperidine-1-carboxamide]
171 | – | CC(C)(F)CN1CCC(Cn2cc(Cc3ccc(C(=O)NO)cc3)c3c(F)cccc32)CC1 [Compound 707, 4-((4-Fluoro-1-((1-(2-fluoro-2-methylpropyl)piperidin-4-yl)methyl)-1H-indol-3-yl)methyl)-N-hydroxybenzamide]
432 | – | CC(C)(F)CN1CCC(Cn2cc(Cc3ccc(C(=O)NO)cc3)c3ccc(F)cc32)CC1 [Compound 708, 4-((6-Fluoro-1-((1-(2-fluoro-2-methylpropyl)piperidin-4-yl)methyl)-1H-indol-3-yl)methyl)-N-hydroxybenzamide]
114 | – | Cc1c(Cc2ccc(C(=O)NO)cc2)c2ccccc2n1CC1CN(CC(C)(C)F)C1 [Compound 750, 4-((1-((1-(2-Fluoro-2-methylpropyl)azetidin-3-yl)methyl)-2-methyl-1H-indol-3-yl)methyl)-N-hydroxybenzamide]
